For four molecules, IC50 results are on record in patent US12258328B2, “6-membered heteroaryl-containing aminopyridine compounds as EGFR inhibitors” (YUHAN CORPORATION, priority 2021, dated 2025).

One assay addresses EGFR del19/T790M/C797S (Homo sapiens, UniProt P00533, C797S/DEL746-750/T790M). The assay is described as follows: Biochemical EGFR kinase assay (Lance Ultra TR-FRET), triple mutant del19/T790M/C797S. The procedure, abridged:
(§1)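 Kinase activity is measured by TR-FRET phosphopeptide detection. Compounds span 0.003 μM to 10 μM; the 1 h reaction at room temperature is quenched with EDTA, then labelled antibody (2 nM) is incubated 60 min before reading.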
For orientation: In TR-FRET formats the signal depends on donor and acceptor labels being close together.

Another assay deals with EGFR L858R/T790M/C797S (Homo sapiens, UniProt P00533, C797S/L858R/T790M). Description: Biochemical EGFR kinase assay (Lance Ultra TR-FRET), triple mutant L858R/T790M/C797S. In short, it runs like this:
as §1

In another assay the target is EGFR del19/C797S (Homo sapiens, UniProt P00533, C797S/DEL746-750). The assay is described as follows: Biochemical EGFR kinase assay (Lance Ultra TR-FRET), double mutant del19/C797S. In short, it runs like this: as §1
Chain of EGFR del19/C797S (P00533 with tags, fused parts or gaps DEL746-750/C797S): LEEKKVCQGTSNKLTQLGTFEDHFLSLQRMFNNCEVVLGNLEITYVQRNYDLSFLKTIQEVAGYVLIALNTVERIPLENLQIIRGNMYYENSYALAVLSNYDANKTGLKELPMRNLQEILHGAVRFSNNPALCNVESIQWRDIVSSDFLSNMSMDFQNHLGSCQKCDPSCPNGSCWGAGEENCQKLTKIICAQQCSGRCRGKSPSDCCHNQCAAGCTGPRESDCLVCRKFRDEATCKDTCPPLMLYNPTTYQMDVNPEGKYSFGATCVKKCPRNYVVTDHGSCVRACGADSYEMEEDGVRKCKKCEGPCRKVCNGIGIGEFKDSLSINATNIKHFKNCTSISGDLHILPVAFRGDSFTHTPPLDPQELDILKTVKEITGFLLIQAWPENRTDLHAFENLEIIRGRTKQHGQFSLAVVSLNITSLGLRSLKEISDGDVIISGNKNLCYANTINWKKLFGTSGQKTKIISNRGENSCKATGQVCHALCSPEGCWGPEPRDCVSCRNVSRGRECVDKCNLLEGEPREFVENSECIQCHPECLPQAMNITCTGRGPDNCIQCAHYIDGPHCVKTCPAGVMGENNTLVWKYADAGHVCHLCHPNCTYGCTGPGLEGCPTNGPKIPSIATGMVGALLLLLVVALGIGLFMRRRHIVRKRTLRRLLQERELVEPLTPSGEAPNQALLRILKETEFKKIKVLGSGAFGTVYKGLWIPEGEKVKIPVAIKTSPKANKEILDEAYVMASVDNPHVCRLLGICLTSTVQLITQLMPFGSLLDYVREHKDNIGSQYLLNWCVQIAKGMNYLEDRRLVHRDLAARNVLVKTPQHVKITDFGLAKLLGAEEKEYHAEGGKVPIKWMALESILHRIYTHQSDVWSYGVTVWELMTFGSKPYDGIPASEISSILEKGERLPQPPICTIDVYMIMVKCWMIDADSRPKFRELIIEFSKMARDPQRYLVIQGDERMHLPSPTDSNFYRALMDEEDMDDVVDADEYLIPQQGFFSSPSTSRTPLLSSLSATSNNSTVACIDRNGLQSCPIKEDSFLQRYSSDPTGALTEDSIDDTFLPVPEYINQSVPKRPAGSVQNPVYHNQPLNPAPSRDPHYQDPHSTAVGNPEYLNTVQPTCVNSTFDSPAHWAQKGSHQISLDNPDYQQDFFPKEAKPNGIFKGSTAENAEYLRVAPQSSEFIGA
For another assay, the target named is EGFR L858R/C797S (Homo sapiens, UniProt P00533, C797S/L858R). Description: Biochemical EGFR kinase assay (Lance Ultra TR-FRET), double mutant L858R/C797S. The procedure, abridged: as §1
Another assay concerns the target EGFR wildtype (Homo sapiens, UniProt P00533). The assay is described as follows: Biochemical EGFR kinase assay (Lance Ultra TR-FRET), wildtype. The procedure, abridged: as §1
Setting [1] is: ATP at Km, read-out: IC50 del19/T790M/C797S, Km ATP.
Setting [2] is: ATP at Km, read-out: IC50 L858R/T790M/C797S, Km ATP.
Where [3] appears, read: ATP at Km, read-out: IC50 del19/C797S, Km ATP.
Setting [4] is: ATP at Km, read-out: IC50 L858R/C797S, Km ATP.
The mark [5] stands for this setting: ATP at Km, read-out: IC50 WT, Km ATP.

Like-named read-outs stand apart in the source and are kept apart here.

Chain of EGFR wildtype (P00533 25-1210): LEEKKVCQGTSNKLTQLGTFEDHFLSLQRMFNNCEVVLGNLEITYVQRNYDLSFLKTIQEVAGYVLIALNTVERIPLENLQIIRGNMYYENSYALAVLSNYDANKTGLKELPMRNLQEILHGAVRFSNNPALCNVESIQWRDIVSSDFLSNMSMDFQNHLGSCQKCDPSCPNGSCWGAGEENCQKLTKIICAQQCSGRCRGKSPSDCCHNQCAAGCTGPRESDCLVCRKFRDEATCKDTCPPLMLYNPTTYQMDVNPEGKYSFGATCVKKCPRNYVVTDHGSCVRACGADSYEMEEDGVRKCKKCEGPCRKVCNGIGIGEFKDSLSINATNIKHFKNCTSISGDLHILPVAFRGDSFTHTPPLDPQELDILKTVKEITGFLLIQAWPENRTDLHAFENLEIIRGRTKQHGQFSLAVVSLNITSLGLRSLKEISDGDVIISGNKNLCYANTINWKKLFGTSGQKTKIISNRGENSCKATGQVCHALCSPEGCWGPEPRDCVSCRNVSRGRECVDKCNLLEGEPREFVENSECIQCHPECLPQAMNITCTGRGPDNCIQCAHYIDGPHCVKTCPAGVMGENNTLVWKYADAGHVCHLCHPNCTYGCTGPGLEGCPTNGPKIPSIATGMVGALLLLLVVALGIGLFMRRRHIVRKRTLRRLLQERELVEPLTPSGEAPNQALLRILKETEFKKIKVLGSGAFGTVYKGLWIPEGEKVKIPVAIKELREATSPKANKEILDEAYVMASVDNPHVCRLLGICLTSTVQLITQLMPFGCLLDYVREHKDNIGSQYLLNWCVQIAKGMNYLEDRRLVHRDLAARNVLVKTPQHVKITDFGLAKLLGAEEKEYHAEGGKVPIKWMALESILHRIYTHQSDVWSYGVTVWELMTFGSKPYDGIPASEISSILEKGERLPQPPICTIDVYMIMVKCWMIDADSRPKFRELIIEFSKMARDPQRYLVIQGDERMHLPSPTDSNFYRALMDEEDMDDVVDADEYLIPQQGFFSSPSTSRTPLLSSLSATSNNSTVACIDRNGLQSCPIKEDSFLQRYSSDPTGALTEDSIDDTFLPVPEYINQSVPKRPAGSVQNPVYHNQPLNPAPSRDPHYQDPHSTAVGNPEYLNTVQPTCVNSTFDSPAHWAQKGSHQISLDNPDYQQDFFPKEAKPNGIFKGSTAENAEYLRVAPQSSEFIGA
Chain of EGFR L858R/T790M/C797S (P00533 25-1210 T790M/C797S/L858R): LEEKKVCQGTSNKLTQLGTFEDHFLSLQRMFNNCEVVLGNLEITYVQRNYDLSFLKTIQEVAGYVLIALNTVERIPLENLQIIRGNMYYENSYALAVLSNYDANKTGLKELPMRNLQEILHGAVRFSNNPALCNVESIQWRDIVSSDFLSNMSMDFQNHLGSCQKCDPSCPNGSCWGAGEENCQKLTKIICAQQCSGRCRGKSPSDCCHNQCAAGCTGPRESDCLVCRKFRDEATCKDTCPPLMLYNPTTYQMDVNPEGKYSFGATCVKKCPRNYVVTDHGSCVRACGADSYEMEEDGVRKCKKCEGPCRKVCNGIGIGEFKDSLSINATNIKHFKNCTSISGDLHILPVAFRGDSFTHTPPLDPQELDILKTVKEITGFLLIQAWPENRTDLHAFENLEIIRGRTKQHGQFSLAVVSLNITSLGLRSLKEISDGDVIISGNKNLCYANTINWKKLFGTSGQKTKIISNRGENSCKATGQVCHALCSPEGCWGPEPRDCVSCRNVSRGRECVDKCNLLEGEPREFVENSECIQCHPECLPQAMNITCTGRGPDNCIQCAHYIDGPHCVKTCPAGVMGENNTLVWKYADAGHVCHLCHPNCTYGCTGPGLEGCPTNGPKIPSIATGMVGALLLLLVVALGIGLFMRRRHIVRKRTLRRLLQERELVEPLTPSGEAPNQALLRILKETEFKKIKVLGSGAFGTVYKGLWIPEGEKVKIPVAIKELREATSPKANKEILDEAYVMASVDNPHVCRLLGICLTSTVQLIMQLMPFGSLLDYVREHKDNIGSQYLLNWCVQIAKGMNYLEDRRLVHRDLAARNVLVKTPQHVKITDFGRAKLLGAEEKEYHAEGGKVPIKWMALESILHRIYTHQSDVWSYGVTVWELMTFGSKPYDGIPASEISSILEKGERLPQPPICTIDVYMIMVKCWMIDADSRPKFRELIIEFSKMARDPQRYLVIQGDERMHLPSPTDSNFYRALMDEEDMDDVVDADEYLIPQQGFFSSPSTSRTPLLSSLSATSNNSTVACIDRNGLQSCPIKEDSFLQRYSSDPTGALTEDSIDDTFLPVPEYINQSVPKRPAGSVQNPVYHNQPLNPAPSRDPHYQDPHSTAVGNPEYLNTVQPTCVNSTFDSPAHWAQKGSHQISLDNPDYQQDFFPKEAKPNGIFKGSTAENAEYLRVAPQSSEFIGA
Chain of EGFR del19/T790M/C797S (P00533 with tags, fused parts or gaps DEL746-750/T790M/C797S): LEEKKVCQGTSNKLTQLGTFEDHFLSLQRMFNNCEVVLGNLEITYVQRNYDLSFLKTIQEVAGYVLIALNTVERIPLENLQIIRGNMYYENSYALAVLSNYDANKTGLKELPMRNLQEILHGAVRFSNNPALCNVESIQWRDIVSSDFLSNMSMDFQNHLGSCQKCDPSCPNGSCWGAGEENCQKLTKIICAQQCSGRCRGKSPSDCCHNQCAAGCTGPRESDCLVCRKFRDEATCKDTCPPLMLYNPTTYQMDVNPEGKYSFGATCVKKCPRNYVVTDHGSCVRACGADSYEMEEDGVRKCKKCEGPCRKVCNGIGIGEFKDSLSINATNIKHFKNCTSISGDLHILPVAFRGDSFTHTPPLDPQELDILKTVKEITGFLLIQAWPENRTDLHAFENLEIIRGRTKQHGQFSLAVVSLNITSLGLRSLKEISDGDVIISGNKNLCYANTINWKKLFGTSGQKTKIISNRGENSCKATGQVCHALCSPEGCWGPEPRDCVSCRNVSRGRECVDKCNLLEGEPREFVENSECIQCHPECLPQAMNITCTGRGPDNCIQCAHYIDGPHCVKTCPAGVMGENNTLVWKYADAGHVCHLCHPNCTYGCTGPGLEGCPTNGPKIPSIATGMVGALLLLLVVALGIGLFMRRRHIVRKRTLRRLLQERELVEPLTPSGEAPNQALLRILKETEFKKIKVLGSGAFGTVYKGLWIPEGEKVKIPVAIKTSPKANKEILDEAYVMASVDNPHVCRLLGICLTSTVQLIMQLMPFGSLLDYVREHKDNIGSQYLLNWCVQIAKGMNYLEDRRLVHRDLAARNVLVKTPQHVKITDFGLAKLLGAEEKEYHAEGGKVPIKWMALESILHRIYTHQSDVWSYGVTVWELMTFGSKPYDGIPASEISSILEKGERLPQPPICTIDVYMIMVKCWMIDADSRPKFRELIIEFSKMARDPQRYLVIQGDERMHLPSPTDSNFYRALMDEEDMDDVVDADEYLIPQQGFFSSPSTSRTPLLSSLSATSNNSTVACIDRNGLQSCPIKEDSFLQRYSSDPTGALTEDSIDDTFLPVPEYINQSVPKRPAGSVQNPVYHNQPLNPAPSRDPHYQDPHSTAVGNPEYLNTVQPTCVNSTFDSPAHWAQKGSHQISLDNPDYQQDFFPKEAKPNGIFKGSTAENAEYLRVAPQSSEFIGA

In the case of `CC(C)(O)[C@H]1CC[C@@H](Nc2cc(Nc3ccnc(-c4cnn(S(=O)(=O)C5CC5)c4)n3)ncc2-c2ccc(N3CC(F)(F)C3)cn2)CC1` [Example 225, 2-((1s,4s)-4-((6′-((2-(1-(Cyclopropylsulfonyl)-1H-pyrazol-4-yl)pyrimidin-4-yl)amino)-5-(3,3-difluoroazetidin-1-yl)-[2,3′-bipyridin]-4′-yl)amino)cyclohexyl)propan-2-ol], the IC50 on EGFR del19/T790M/C797S (setting [1]) came to 6.9 nM; at EGFR del19/T790M/C797S (read-out: IC50 del19/T790M/C797S, 100 μM ATP), 6 nM; at EGFR L858R/T790M/C797S (setting [2]), 2.5 nM; at EGFR L858R/T790M/C797S (read-out: IC50 L858R/T790M/C797S, 100 μM ATP), 4.4 nM; at EGFR del19/C797S (setting [3]), 16.1 nM; on EGFR del19/C797S (read-out: IC50 del19/C797S, 100 μM ATP) it was 19.8 nM. Besides, the IC50 was 10.2 nM on EGFR L858R/C797S (setting [4]); 799 nM on EGFR L858R/C797S (read-out: IC50 L858R/C797S, 100 μM ATP); 33.8 nM on EGFR wildtype (setting [5]); greater than 10000 nM on EGFR wildtype (read-out: IC50 WT, 100 μM ATP).
With `C[C@]1(O)CC[C@@H](Nc2cc(Nc3ccnc(-c4cnn(S(=O)(=O)C5CC5)c4)n3)ncc2-c2ccc(N3CC4(COC4)C3)nn2)CC1` [Example 67, (1s,4s)-4-((5-(6-(2-Oxa-6-azaspiro[3.3]heptan-6-yl)pyridazin-3-yl)-2-((2-(1-(cyclopropylsulfonyl)-1H-pyrazol-4-yl)pyrimidin-4-yl)amino)pyridin-4-yl)amino)-1-methylcyclohexan-1-ol], the IC50 at EGFR del19/T790M/C797S (IC50 del19/T790M/C797S (nM) 100 μM ATP, 100 μM ATP) was determined as 0.3 nM; on EGFR del19/T790M/C797S (Km ATP, read-out: IC50 del19/T790M/C797S (nM) Km ATP) it was 0.3 nM; on EGFR L858R/T790M/C797S (IC50 L858R/T790M/C797S (nM) 100 μM ATP, 100 μM ATP), 0.3 nM; at EGFR L858R/T790M/C797S (Km ATP, read-out: IC50 L858R/T790M/C797S (nM) Km ATP), 0.1 nM; against EGFR del19/C797S (IC50 del19/C797S (nM) 100 μM ATP, 100 μM ATP), 0.5 nM; on EGFR del19/C797S (Km ATP, read-out: IC50 del19/C797S (nM) Km ATP), 0.5 nM. In addition, the IC50 against EGFR L858R/C797S (IC50 L858R/C797S (nM) 100 μM ATP, 100 μM ATP) was 4.5 nM; on EGFR L858R/C797S (Km ATP, read-out: IC50 L858R/C797S (nM) Km ATP) it was 0.8 nM; on EGFR wildtype (IC50 WT (nM) 100 μM ATP, 100 μM ATP), greater than 10000 nM; at EGFR wildtype (Km ATP, read-out: IC50 WT (nM) Km ATP), 3.7 nM.
With `CC(C)(F)c1ccc(-c2cnc(Nc3ccnc(-c4cnn(S(=O)(=O)C5CC5)c4)n3)cc2N[C@H]2CC[C@@H](F)CC2)nc1` [Example 238, N^6′-(2-(1-(Cyclopropylsulfonyl)-1H-pyrazol-4-yl)pyrimidin-4-yl)-N^4′-((1s,4s)-4-fluorocyclohexyl)-5-(2-fluoropropan-2-yl)-[2,3′-bipyridine]-4′,6′-diamine], the IC50 was determined as 28.4 nM at EGFR del19/T790M/C797S (setting [1]); 9.2 nM on EGFR L858R/T790M/C797S (setting [2]); 95.1 nM at EGFR del19/C797S (setting [3]); 18.7 nM at EGFR L858R/C797S (setting [4]); 317 nM at EGFR wildtype (setting [5]).
Consider `CC(C)(O)C1CCC(Nc2cc(Nc3ccnc(-c4cnn(S(=O)(=O)C5CC5)c4)n3)ncc2-c2ccc(C(C)(O)C(F)(F)F)cn2)CC1` (centres unmarked) [Example 233, 2-(6′-((2-(1-(Cyclopropylsulfonyl)-1H-pyrazol-4-yl)pyrimidin-4-yl)amino)-4′-(((1s,4s)-4-(2-hydroxypropan-2-yl)cyclohexyl)amino)-[2,3′-bipyridin]-5-yl)-1,1,1-trifluoropropan-2-ol], for which the IC50 on EGFR del19/T790M/C797S (setting [1]) was 4.7 nM; against EGFR del19/T790M/C797S (IC50 del19/T790M/C797S, 100 μM ATP), 6.3 nM; at EGFR L858R/T790M/C797S (setting [2]), 0.9 nM; against EGFR L858R/T790M/C797S (IC50 L858R/T790M/C797S, 100 μM ATP), 2.7 nM; on EGFR del19/C797S (setting [3]), 7.1 nM; on EGFR del19/C797S (IC50 del19/C797S, 100 μM ATP), 19.2 nM. Moreover, the IC50 at EGFR L858R/C797S (setting [4]) was determined as 4.7 nM; at EGFR L858R/C797S (IC50 L858R/C797S, 100 μM ATP), 36 nM; at EGFR wildtype (setting [5]) it was 18.3 nM; against EGFR wildtype (IC50 WT, 100 μM ATP), 6750 nM.
